Laboratory results taken from US11358936B2, “Lysyl oxidase-like 2 inhibitors and uses thereof” (PharmAkea, Inc., priority 2015, dated 2022).
Structures can show the parent of a compound that is named as a salt.

Molecular target: human LOXL2 (Homo sapiens (Human), UniProt Q9Y4K0)
Test: Human LOXL2 Amine Oxidase Activity Assay (Amplex Red fluorescence)
Format: biochemical
Conditions: concentrated conditioned media from CHO cells stably expressing human LOXL2; 2 h at 37° C. preincubation; DAP substrate; read-out: IC50
Protocol: LOXL2 amine oxidase activity is evaluated by measuring Amplex Red fluorescence using 10-20× concentrated conditioned media from CHO cells stably expressing human LOXL2. To assay for amine oxidase activity, 10 μL of the concentrated conditioned media is incubated with 2 μL of test compound in DMSO and 73 μL Assay Buffer (50 mM Borate Buffer, pH8) for 2 h at 37° C. After the 2 h incubation, 5 μl of 10 mM 1,5-Diaminopentane (DAP) diluted in Assay Buffer and 10 μl of Amplex Red Mix (8.5 μl Assay Buffer+0.5 μl of 10 mM Amplex Red+1 μl of 500 U/ml Horseradish Peroxidase) are added and the plate mixed and immediately placed on the FlexStaion for fluorescence measurements. Fluorescence is read in kinetic mode every 2 min for 1 hour at excitation=544 and emission=590. The amine oxidase activity is calculated from the slope of the linear portion of the curve.

human LOXL2, sequence (Q9Y4K0 26-774): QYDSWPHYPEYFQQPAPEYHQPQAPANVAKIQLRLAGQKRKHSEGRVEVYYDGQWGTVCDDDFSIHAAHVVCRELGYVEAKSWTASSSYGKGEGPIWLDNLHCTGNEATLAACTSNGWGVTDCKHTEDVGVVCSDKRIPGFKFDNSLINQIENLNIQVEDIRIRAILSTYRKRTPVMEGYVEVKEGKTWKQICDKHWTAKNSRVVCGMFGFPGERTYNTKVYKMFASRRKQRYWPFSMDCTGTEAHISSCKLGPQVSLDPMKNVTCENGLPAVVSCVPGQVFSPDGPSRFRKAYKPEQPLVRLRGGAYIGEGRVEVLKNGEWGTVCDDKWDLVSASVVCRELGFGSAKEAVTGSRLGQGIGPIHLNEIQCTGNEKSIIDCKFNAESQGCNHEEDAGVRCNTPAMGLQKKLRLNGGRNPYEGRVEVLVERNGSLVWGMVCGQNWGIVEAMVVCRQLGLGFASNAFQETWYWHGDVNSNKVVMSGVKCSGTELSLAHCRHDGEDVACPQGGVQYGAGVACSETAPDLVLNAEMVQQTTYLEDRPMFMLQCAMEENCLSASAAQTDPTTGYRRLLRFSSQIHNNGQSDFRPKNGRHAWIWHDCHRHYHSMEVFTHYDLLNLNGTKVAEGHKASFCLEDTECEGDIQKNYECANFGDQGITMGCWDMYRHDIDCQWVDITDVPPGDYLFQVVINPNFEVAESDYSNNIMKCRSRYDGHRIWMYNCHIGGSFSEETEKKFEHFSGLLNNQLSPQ

Structure (SMILES)	IC50 [nM]
COC(=O)c1ccc(NC(=O)c2cccc(Oc3cc(CN)ccn3)c2)cc1 [Compound 1-26, Methyl 4-(3-((4-(amindimethyl)pyridin-2-yl)oxy)benzamido)benzoate hydrochloride]	< 300
NCc1ccnc(Oc2cccc(C(=O)Nc3ccc(Br)cc3)c2)c1 [Compound 1-25, 3-((4-(Aminomethyl)pyridin-2-yl)oxy)-N-(4-bromophenyl)benzamide hydrochloride]	< 300
NCc1ccnc(Oc2ccc(C(=O)Nc3ccccc3)cc2)c1 [Compound 1-13, 4-((4-(Aminomethyl)pyridin-2-yl)oxy)-N-phenylbenzamide hydrochloride]	< 300
NCc1ccnc(OCc2cccc(C(=O)Nc3ccccc3)c2)c1 [Compound 1-45, 3-(((4-(Aminomethyl)pyridin-2-yl)oxy)methyl)-N-phenylbenzamide hydrochloride]	< 300
CCCCCCCCCCCCCNC(=O)c1cccc(Oc2cc(CN)ccn2)c1 [Compound 1-44, 3-((4-(Aminomethyl)pyridin-2-yl)oxy)-N-tridecylbenzamide hydrochloride]	< 300
NCc1ccnc(-c2ccc(C(=O)NCc3ccccc3)cc2)c1 [Compound 1-4, 4-(4-(Aminomethyl)pyridin-2-yl)-N-benzylbenzamide hydrochloride]	< 300
CCOC(=O)c1cccc(NC(=O)c2cccc(Oc3cc(CN)ccn3)c2)c1 [Compound 1-27, Ethyl 3-(3-((4-(aminomethyl)pyridin-2-yl)oxy)benzamido)benzoate hydrochloride]	< 300
Cc1ccc(Cl)cc1NC(=O)c1cccc(-c2cc(CN)ccn2)c1 [Compound 1-9, 3-(4-(Aminomethyl)pyridin-2-yl)-N-(5-chloro-2-methylphenyl)benzamide hydrochloride]	< 300
NCc1ccnc(Oc2cccc(C(=O)NCc3ccc(Br)cc3)c2)c1 [Compound 1-32, 3-((4-(Aminomethyl)pyridin-2-yl)oxy)-yl)-(4-bromobenzyl)benzamide hydrochloride]	< 300
NCc1ccnc(Cl)c1 [Compound 4-5, 2-Chloro-4-(aminomethyl)pyridine]	< 300
NCc1ccnc(Oc2cccc(C(=O)NCc3ccc(C(F)(F)F)cc3)c2)c1 [Compound 1-31, 3-((4-(Aminomethyl)pyridin-2-yl)oxy)-N-(4-(trifluoromethyl)benzyl)benzamide hydrochloride]	< 300
NCc1ccnc(-c2ccc(C(=O)Nc3ccccc3)cc2)c1 [Compound 1-3, 4-(4-(Aminomethyl)pyridin-2-yl)-N-phenylbenzamide hydrochloride]	< 300
NCc1ccnc(Oc2cccc(C(=O)Nc3cccc(C(F)(F)F)c3)c2)c1 [Compound 1-21, 3-((4-Aminomethyl)pyridin-2-yl)oxy)-N-(3-(trifluoromethyl)phenyl)benzamide hydrochloride]	< 300
COc1ccc(NC(=O)c2cccc(Oc3cc(CN)ccn3)c2)cc1 [Compound 1-20, 3-((4-Aminomethyl)pyridin-2-yl)oxy)-N-(4-methoxyphenyl)benzamide hydrochloride]	< 300
NCc1ccnc(Oc2cccc(C(=O)N3CCC(O)(C(F)(F)F)C3)c2)c1 (racemic) [Compound 1-16, Racemic-(3-((4-(aminomethyl)pyridin-2-yl)oxy)phenyl)(3-hydroxy-3-(trifluoromethyl)pyrrolidin-1-yl)methanone hydrochloride]	< 300
NCc1ccnc(Oc2cccc(C(=O)NCc3cnccn3)c2)c1 [Compound 1-43, 3-((4-(Aminomethyl)pyridin-2-yl)oxy)-N-(pyrazin-2-ylmethyl)benzamide hydrochloride]	< 300
NCc1ccnc(Oc2ccccc2C(F)(F)F)c1 [Compound 4-9, 2-(2-Trifluoromethylphenoxy)-4-(aminomethyl)pyridine]	< 300
COc1cccc(NC(=O)c2cccc(Oc3cc(CN)ccn3)c2)c1 [Compound 1-19, 3-((4-(Aminomethyl)pyridin-2-yl)oxy)-N-(3-methoxyphenyl)benzamide hydrochloride]	< 300

Results, then the compound that gave them:

IC50 [nM]	Structure (SMILES)
< 300	CN(C)C(=O)Cn1ccc2c(Oc3cc(CN)ccn3)cccc21 [Compound 2-26, 2-(4-((4-(Aminomethyl)pyridin-2-yl)oxy)-1H-indol-1-yl)-N,N-dimethylacetamide hydrochloride]
300 to 1000	NCc1ccnc(NC(=O)Cc2ccc(Cl)c(Cl)c2)c1 [Compound 2-43, N-(4-(Aminomethyl)pyridin-2-yl)-2-(3,4-dichlorophenyl)acetamide trifluoroacetate]
< 300	NCc1ccnc(Oc2cccc(Oc3ccccc3)c2)c1 [Compound 2-8, (2-(3-Phenoxyphenoxy)pyridin-4-yl)methanamine]
< 300	NCc1ccnc(-c2cccnc2)c1 [Compound 2-3, [2,3′-Bipyridin]-4-ylmethanamine]
< 300	NCc1ccnc(Oc2cccc3c2ccn3CC(=O)N2CCCC(O)(C(F)(F)F)C2)c1 (single isomer, unassigned) [Compound 2-28, (R) or (S)-2-(4-((4-(Aminomethyl)pyridin-2-yl)oxy)-1H-indol-1-yl)-1-(3-hydroxy-3-(trifluoromethyl)piperidin-1-yl)ethan-1-one hydrochloride]
< 300	Cc1cc2c(Oc3cc(CN)ccn3)cccc2n1Cc1ccc(F)cc1F [Compound 2-11, (2-((1-(2,4-Difluorobenzyl)-2-methyl-1H-indol-4-yl)oxy)pyridin-4-yl)methanamine trifluoroacetate]
300 to 1000	Cc1ccc(C(=O)Nc2cc(CN)ccn2)c(F)c1 [Compound 2-42, N-(4-(Aminomethyl)pyridin-2-yl)-2-fluoro-4-methylbenzamide trifluoroacetate]
< 300	COc1ccc(CN2C(=O)CCc3c(Oc4cc(CN)ccn4)cccc32)cn1 [Compound 2-37, 5-((4-(Aminomethyl)pyridin-2-yl)oxy)-1-((6-methoxypyridin-3-yl)methyl)-3,4-dihydroquinolin-2(1H)-one acetate]
< 300	NCc1ccnc(Oc2cccc3c2ccn3CCc2ccc(F)cc2)c1 [Compound 2-22, (2-((1-(4-Fluorophenethyl)-1H-indol-4-yl)oxy)pyridin-4-yl)methanamine hydrochloride]
300 to 1000	NCc1ccnc(Oc2cccc3c2ccn3CC(=O)N2CCCC(O)(C(F)(F)F)C2)c1 (single isomer, unassigned) [Compound 2-29, (R) or (S)-2-(4-((4-(aminomethyl)pyridin-2-yl)oxy)-1H-indol-1-yl)-1-(3-hydroxy-3-(trifluoromethyl)piperidin-1-yl)ethan-1-one hydrochloride]
< 300	NCc1ccnc(Oc2cccc3c2CCC(=O)N3Cc2ccc(F)cc2F)c1 [Compound 2-36, 5-((4-(Aminomethyl)pyridin-2-yl)oxy)-1-(2,4-difluorobenzyl)-3,4-dihydroquinolin-2(1H)-one hydrochloride]
> 1000	CN(C)c1cc(CN)cc(Oc2cccc(Oc3ccccc3)c2)n1 [Compound 3-1, 4-(Aminomethyl)-N,N-dimethyl-6-(3-phenoxyphenoxy)pyridin-2-amine hydrochloride]
< 300	NCc1ccnc(Oc2cccc3[nH]ccc23)c1 [Compound 2-32, (2-((1H-Indol-4-yl)oxy)pyridin-4-yl)methanamine trifluoroacetate]
